# pKi: −log10 of the molar value. Several values for one entry are separate records, joined by “and”; a condition that tells them apart may be missing. Equal values may be shown once.
# Columns and labels:
# [1] = system: Mouse lung cancer cells (6#); experiment: drug treatment of 6# cells, phase-contrast microscopy; assay type: cell-based; conditions: for effect on cell proliferation / cell death: FTI-277 15 μM, GGTI-298 15 μM, BPH-1222 10 μM
# [2] = system: p70 S6 kinase and 4E-BP1 phosphorylation in mouse lung cancer cells (6#); experiment: mTOR substrate phosphorylation by immunoblotting; assay type: cell-based; conditions: 6# cells, rapamycin 0.1 μM, 48 h
# FPPS = conditions: cited from earlier work
# KRAS tumors = experiment: zoledronate plus rapamycin in vivo; conditions: fig. S4D, E
# human GGPPS = molecular target: T1, human GGPPS (Homo sapiens, UniProt O95749); experiment: GGPPS enzymatic inhibition assay; assay type: biochemical; conditions: read-out: GGPPS Ki, in vitro
# T1 sequence (O95749 1-300): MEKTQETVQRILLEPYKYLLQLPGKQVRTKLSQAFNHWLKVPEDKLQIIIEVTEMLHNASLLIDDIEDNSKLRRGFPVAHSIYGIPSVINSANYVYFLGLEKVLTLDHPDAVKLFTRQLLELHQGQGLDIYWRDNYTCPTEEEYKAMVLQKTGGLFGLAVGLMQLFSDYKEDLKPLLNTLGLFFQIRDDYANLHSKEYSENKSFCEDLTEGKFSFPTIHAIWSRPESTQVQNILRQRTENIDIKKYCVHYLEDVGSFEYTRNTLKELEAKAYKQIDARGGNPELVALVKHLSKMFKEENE
# [3] = system: HRAS, KRAS and RAP1A prenylation in U2OS cells expressing Flag-KRAS G12D; experiment: cell fractionation assay of protein prenylation; assay type: cell-based; conditions: 48 h, BPH-1222 10 μM, BPH-714 10 μM, zoledronate 20 μM
# [4] = system: GTP-bound KRAS in mouse lung cancer cells (M3L2); experiment: KRAS-GTP pull-down with RAF-1 RBD beads; assay type: cell-based; conditions: 48 h
# [5] = system: CHOP, BiP, LC3 in mouse lung cancer cells (6#); experiment: ER stress and autophagy markers by immunoblotting; assay type: cell-based
# pharmacokinetics test = assay type: in vivo; conditions: single i.v. injection 5 mg/kg, female SD rats
smiles,measurement,setting,value
COC(=O)[C@H](CC(C)C)NC(=O)c1ccc(NC[C@@H](N)CS)cc1-c1cccc2ccccc12 [GGTI-298],effect on cell proliferation / cell death,[1],little effect on cell proliferation
COC(=O)[C@H](CCSC)NC(=O)c1ccc(NC[C@@H](N)CS)cc1-c1ccccc1 [FTI-277],effect on cell proliferation / cell death,[1],little effect on cell proliferation
CO[C@H]1C[C@@H]2CC[C@@H](C)[C@@](O)(O2)C(=O)C(=O)N2CCCC[C@H]2C(=O)O[C@H]([C@H](C)C[C@@H]2CC[C@@H](O)[C@H](OC)C2)CC(=O)[C@H](C)/C=C(\C)[C@@H](O)[C@@H](OC)C(=O)[C@H](C)C[C@H](C)/C=C/C=C/C=C/1C [rapamycin],phosphorylation of mTOR substrates (p70 S6 kinase and 4E-BP1),[2],potently blocked phosphorylation
"CC(C)=CCC/C(C)=C/CC/C(C)=C/CC/C(C)=C/CO [GGOH, geranylgeraniol]",rescue from bisphosphonate-induced cell death,"[1]; supplementation 10 μM with BPH-1222 10 μM, 48 h",substantially rescued cells
O=P(O)(O)C(O)(Cc1cccnc1)P(=O)(O)O [risedronate],FPPS inhibition,FPPS,inhibit FPPS
NCCCC(O)(P(=O)(O)O)P(=O)(O)O [alendronate],FPPS inhibition,FPPS,inhibit FPPS
O=P(O)(O)C(O)(Cn1ccnc1)P(=O)(O)O [zoledronate],synergy with rapamycin for killing KRAS tumors,KRAS tumors,synergizes with rapamycin in vivo
same,FPPS inhibition,FPPS,inhibit FPPS
CCCCCCCCn1cc[n+](CC(O)(P(=O)([O-])O)P(=O)(O)O)c1 (centres unmarked) [BPH-1222],pKi,human GGPPS,~6.52 and 6.52
same,"inhibition of protein farnesylation and geranylgeranylation (HRAS degradation, RAP1A dislodgement)",[3],robustly inhibited protein farnesylation as well as protein geranylgeranylation
same,amount of GTP-bound KRAS,[4],greatly reduced the amount of GTP-bound KRAS
same,ER stress markers CHOP and BiP protein levels,"[5]; 6# cells, 10 μM, 1, 2, or 3 days",potently induced
same,time to autophagy induction (accumulation of PE-conjugated LC3),[5]; tumor cells treated with BPH-1222,2 to 3 days
same,pharmacokinetic properties,pharmacokinetics test,good pharmacokinetic properties
